Experimental data taken from the supplement of paper PMC11061612.

Tests used:
Test in all cases: combination Emax (second highest fraction inhibited in the dose matrix, 72 h); higher = more inhibition; extreme values may be limits of the assay
[1] = system: TE-8 (Esophageal Squamous Cell Carcinoma)
In short: (§1)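 After 24 hours at 37°C and 5% CO2 in 1536-well plates, cells in DMEM/F12 or RPMI plus 10% FBS received two-drug dose matrices for 72 hours. Viability came from CellTiter-Glo 2.0 luminescence and was scaled as inhibition, anchored at 0 by vehicle wells and at 1 by blank wells. Combination Emax is taken as the second-highest inhibition in the matrix, and Bliss excess as the observed combination effect less EA + EB − EA·EB, with EA and EB the single-agent effects.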

GB-1 (Glioblastoma) = system: GB-1 (Glioblastoma)
In short: as §1

[2] = system: LK-2 (Squamous Cell Lung Carcinoma)
In short: as §1

[3] = system: CAL-62 (Thyroid Gland Carcinoma)
In short: as §1

[4] = system: OVMIU (Ovarian Carcinoma)
In short: as §1

[5] = system: LXF-289 (Lung Adenocarcinoma)
In short: as §1

[6] = system: SK-PN-DW (Other Solid Carcinomas)
In short: as §1

[7] = system: PANC-03-27 (Pancreatic Carcinoma)
In short: as §1

LN-229 (Glioblastoma) = system: LN-229 (Glioblastoma)
In short: as §1

SF539 (Glioblastoma) = system: SF539 (Glioblastoma)
In short: as §1

[8] = system: KE-37 (T-Lymphoblastic Leukemia)
In short: as §1

[9] = system: L-1236 (Hodgkin's Lymphoma)
In short: as §1

[10] = system: GP5d (Colorectal Carcinoma)
In short: as §1

IST-MES1 (Mesothelioma) = system: IST-MES1 (Mesothelioma)
In short: as §1

[11] = system: NCI-H446 (Small Cell Lung Carcinoma)
In short: as §1

[12] = system: MFE-280 (Endometrial Carcinoma)
In short: as §1

SF268 (Low Grade Glioma) = system: SF268 (Low Grade Glioma)
In short: as §1

[13] = system: VAL (B-Cell Non-Hodgkin's Lymphoma)
In short: as §1

[14] = system: OPM-2 (Plasma Cell Myeloma)
In short: as §1

[15] = system: HEC-1 (Endometrial Carcinoma)
In short: as §1

## COc1nnc2ccc(N3CCC(c4ccc(OCCN5CCN(C)C(=O)[C@H]5C)cc4)CC3)nn12 [AZD5153] + CCN(CCO)CCCOc1ccc2c(Nc3cc(CC(=O)Nc4cccc(F)c4)[nH]n3)ncnc2c1 [AZD2811] (first compound max 1 µM, 7x7, partner max 1 µM)
[1]
  combination Emax: 0.556
GB-1 (Glioblastoma)
  combination Emax: 0.243
[2]
  combination Emax: 0.625
[3]
  combination Emax: 0.774
[4]
  combination Emax: 0.706
[5]
  combination Emax: 0.82
[6]
  combination Emax: 0.726
[7]
  combination Emax: 0.179
LN-229 (Glioblastoma)
  combination Emax: 0.411
SF539 (Glioblastoma)
  combination Emax: 0.699
[8]
  combination Emax: 1
[9]
  combination Emax: 0.988
[10]
  combination Emax: 0.728
IST-MES1 (Mesothelioma)
  combination Emax: 0.653
[11]
  combination Emax: 0.962
[12]
  combination Emax: 0.348
SF268 (Low Grade Glioma)
  combination Emax: 0.609
[13]
  combination Emax: 0.727
[14]
  combination Emax: 1
[15]
  combination Emax: 0.607

## COc1nnc2ccc(N3CCC(c4ccc(OCCN5CCN(C)C(=O)[C@H]5C)cc4)CC3)nn12 [AZD5153] + C[C@@H]1COCCN1C2=NC(=NC(=C2)C3(CC3)[S@](=N)(=O)C)C4=C5C=CNC5=NC=C4 [AZD6738] (first compound max 1 µM, 7x7, partner max 10 µM)
[1]
  combination Emax: 0.617
GB-1 (Glioblastoma)
  combination Emax: 0.678
[2]
  combination Emax: 0.784
[3]
  combination Emax: 0.895
[4]
  combination Emax: 0.795
[5]
  combination Emax: 0.862
[6]
  combination Emax: 0.868
[7]
  combination Emax: 0.489
LN-229 (Glioblastoma)
  combination Emax: 0.575
SF539 (Glioblastoma)
  combination Emax: 0.882
[8]
  combination Emax: 0.978
[9]
  combination Emax: 0.998
[10]
  combination Emax: 0.855
IST-MES1 (Mesothelioma)
  combination Emax: 0.644
[11]
  combination Emax: 0.951
[12]
  combination Emax: 0.425
SF268 (Low Grade Glioma)
  combination Emax: 0.773
[13]
  combination Emax: 0.835
[14]
  combination Emax: 1
[15]
  combination Emax: 0.884

## COc1nnc2ccc(N3CCC(c4ccc(OCCN5CCN(C)C(=O)[C@H]5C)cc4)CC3)nn12 [AZD5153] + Cc1c2c(nn1C)CSCc1cc(n(C)n1)CSc1cc(c3ccccc3c1)OCCCc1c(C(=O)O)n(C)c3c-2c(Cl)ccc13 [AZD5991] (first compound max 1 µM, 7x7, partner max 1 µM)
[1]
  combination Emax: 0.705
GB-1 (Glioblastoma)
  combination Emax: 0.288
[2]
  combination Emax: 0.413
[3]
  combination Emax: 0.795
[4]
  combination Emax: 0.813
[5]
  combination Emax: 0.903
[6]
  combination Emax: 0.985
[7]
  combination Emax: 0.252
LN-229 (Glioblastoma)
  combination Emax: 0.629
SF539 (Glioblastoma)
  combination Emax: 0.638
[8]
  combination Emax: 0.997
[9]
  combination Emax: 1
[10]
  combination Emax: 0.961
IST-MES1 (Mesothelioma)
  combination Emax: 0.96
[11]
  combination Emax: 0.998
[12]
  combination Emax: 0.45
SF268 (Low Grade Glioma)
  combination Emax: 0.569
[13]
  combination Emax: 0.854
[14]
  combination Emax: 1
[15]
  combination Emax: 0.942

## COc1nnc2ccc(N3CCC(c4ccc(OCCN5CCN(C)C(=O)[C@H]5C)cc4)CC3)nn12 [AZD5153] + Cn1cnc2c(F)c(Nc3ccc(Br)cc3Cl)c(C(=O)NOCCO)cc21 [Selumetinib] (first compound max 1 µM, 7x7, partner max 10 µM)
[1]
  combination Emax: 0.575
GB-1 (Glioblastoma)
  combination Emax: 0.288
[2]
  combination Emax: 0.6
[3]
  combination Emax: 0.844
[4]
  combination Emax: 0.737
[5]
  combination Emax: 0.646
[6]
  combination Emax: 0.559
[7]
  combination Emax: 0.398
LN-229 (Glioblastoma)
  combination Emax: 0.511
SF539 (Glioblastoma)
  combination Emax: 0.653
[8]
  combination Emax: 0.654
[9]
  combination Emax: 1
[10]
  combination Emax: 0.887
IST-MES1 (Mesothelioma)
  combination Emax: 0.641
[11]
  combination Emax: 0.91
[12]
  combination Emax: 0.361
SF268 (Low Grade Glioma)
  combination Emax: 0.518
[13]
  combination Emax: 0.738
[14]
  combination Emax: 1
[15]
  combination Emax: 0.595

## Cc1c2c(nn1C)CSCc1cc(n(C)n1)CSc1cc(c3ccccc3c1)OCCCc1c(C(=O)O)n(C)c3c-2c(Cl)ccc13 [AZD5991] + C1CN(CCC1(C(=O)N[C@@H](CCO)C2=CC=C(C=C2)Cl)N)C3=NC=NC4=C3C=CN4 [Capivasertib] (first compound max 1 µM, 7x7, partner max 3 µM)
[1]
  combination Emax: 0.523
GB-1 (Glioblastoma)
  combination Emax: 0.195
[2]
  combination Emax: 0.121
[3]
  combination Emax: 0.152
[4]
  combination Emax: 0.353
[5]
  combination Emax: 0.369
[6]
  combination Emax: 0.95
[7]
  combination Emax: 0.167
LN-229 (Glioblastoma)
  combination Emax: 0.42
SF539 (Glioblastoma)
  combination Emax: 0.573
[8]
  combination Emax: 1
[9]
  combination Emax: 0.42
[10]
  combination Emax: 0.733
IST-MES1 (Mesothelioma)
  combination Emax: 0.138
[11]
  combination Emax: 0.838
[12]
  combination Emax: 0.461
SF268 (Low Grade Glioma)
  combination Emax: 0.216
[13]
  combination Emax: 0.811
[14]
  combination Emax: 1
[15]
  combination Emax: 0.0757

## Cc1c2c(nn1C)CSCc1cc(n(C)n1)CSc1cc(c3ccccc3c1)OCCCc1c(C(=O)O)n(C)c3c-2c(Cl)ccc13 [AZD5991] + C=CCn1c(=O)c2cnc(Nc3ccc(N4CCN(C)CC4)cc3)nc2n1-c1cccc(C(C)(C)O)n1 [AZD1775] (first compound max 1 µM, partner max 1 µM)
[1]
  combination Emax: 0.818
GB-1 (Glioblastoma)
  combination Emax: 0.293
[2]
  combination Emax: 0.88
[3]
  combination Emax: 0.766
[4]
  combination Emax: 0.635
[5]
  combination Emax: 0.813
[6]
  combination Emax: 0.962
[7]
  combination Emax: 0.926
LN-229 (Glioblastoma)
  combination Emax: 0.855
SF539 (Glioblastoma)
  combination Emax: 1
[8]
  combination Emax: 0.995
[9]
  combination Emax: 0.824
[10]
  combination Emax: 0.977
IST-MES1 (Mesothelioma)
  combination Emax: 0.31
[11]
  combination Emax: 0.941
[12]
  combination Emax: 0.469
SF268 (Low Grade Glioma)
  combination Emax: 0.577
[13]
  combination Emax: 0.887
[14]
  combination Emax: 1
[15]
  combination Emax: 0.247

## Cc1c2c(nn1C)CSCc1cc(n(C)n1)CSc1cc(c3ccccc3c1)OCCCc1c(C(=O)O)n(C)c3c-2c(Cl)ccc13 [AZD5991] + CC1(C)CCC(CN2CCN(c3ccc(C(=O)NS(=O)(=O)c4ccc(NCC5CCOCC5)c([N+](=O)[O-])c4)c(Oc4cnc5[nH]ccc5c4)c3)CC2)=C(c2ccc(Cl)cc2)C1 [Venetoclax] (first compound max 1 µM, 7x7, partner max 1 µM)
[1]
  combination Emax: 0.403
GB-1 (Glioblastoma)
  combination Emax: 0.133
[2]
  combination Emax: 0.302
[3]
  combination Emax: 0.148
[4]
  combination Emax: 0.318
[5]
  combination Emax: 0.296
[6]
  combination Emax: 0.929
[7]
  combination Emax: 0.188
LN-229 (Glioblastoma)
  combination Emax: 0.503
SF539 (Glioblastoma)
  combination Emax: 0.544
[8]
  combination Emax: 0.987
[9]
  combination Emax: 0.764
[10]
  combination Emax: 0.928
IST-MES1 (Mesothelioma)
  combination Emax: 0.116
[11]
  combination Emax: 0.86
[12]
  combination Emax: 0.193
SF268 (Low Grade Glioma)
  combination Emax: 0.248
[13]
  combination Emax: 1
[14]
  combination Emax: 1
[15]
  combination Emax: 0.173
